In patent publication US20120270928A1, “MICRORNA COMPOUNDS AND METHODS FOR MODULATING MIR-21 ACTIVITY” (REGULUS THERAPEUTICS INC., priority 2011, published 2012):
Strand notation (5' to 3'): a small letter for the sugar, then the base; units joined by * are phosphorothioate-linked, units joined directly phosphodiester-linked; [ ] holds rarer units or linkages, { } end groups; capitals alone tell only the bases. e = 2'-O-(2-methoxyethyl) (MOE); l = locked nucleic acid (LNA); k = constrained ethyl (cEt); [5mC] = 5-methylcytosine; d = 2'-deoxy (DNA)

Key:
[1] = test system: UUO model of kidney fibrosis; test: Unilateral ureteral obstruction (UUO) model of kidney fibrosis: kidney collagen 1A1 and collagen 3A1 expression by real-time PCR; type: in vivo, mice; conditions: UUO; 20 mg/kg at days -5, -3, +3; kidney at day 10
Procedure: Unilateral ureteral obstruction (UUO) is a well-established experimental model of renal injury leading to interstitial fibrosis, and thus is used as an experimental model that is reflective of human kidney disease. UUO is induced by surgically ligating a single ureter. As fibrosis is characterized by an increase in collagen, the presence and extent of kidney fibrosis may be determined by measuring collagen content. Both collagen 1A1 (Col 1A1) and collagen 3A1 (Col 3A1) are measured to assess collagen content. Kidney fibrosis may be visualized by staining tissue samples with picro-sirius red to detect increases in collagen content. Kidney fibrosis may also be observed by measuring the amount of hydroxyproline, which is a major component of collagen, in a sample.
The cEt-containing anti-miR-21 compounds found to be active in the luciferase assay were tested in the UUO model of kidney fibrosis. 25919 comprising 2′-MOE and 2′-fluoro modifications is known to inhibit miR-21 activity in vivo and was included as a positive control. Groups of 8 animals each were treated as follows: UUO only, UUO with PBS, or UUO with anti-miR-21 compound. Relative to the day of the UUO procedure, PBS or anti-miR-21 compound was administered at days −3, −1, and +5. Anti-miR-21 compounds were administered at a dose of 20 mg/kg. As the anti-miR compounds were administered prior to the UUO procedure, this dosing regimen is considered a prophylactic treatment. At day 11, animals were sacrificed and kidney was isolated for measurement of collagen expression. Collagen expression was measured by real-time PCR and normalized first to GAPDH and then to the sham control animals.
The UUO study was repeated to confirm the activity of 25070. The anti-miR was administered subcutaneously at a dose of 20 mg/kg.
Control treatment groups included UUO only (sham) and UUO with PBS administered subcutaneously. An additional control group included UUO with Tween-MC/20 carrier perorally. 25070 administered subcutaneously at dose of 20 mg/kg at 5 days prior to, 2 days prior to, and 3 days after, the UUO procedure. Irbesartan was administered perorally on daily on days 0 through 7 following the UUO procedure. Animals were sacrificed on Day 10 following the UUO procedure. Kidney tissue was collected for measurement of collagen 1A1 and collagen 3A1 expression.
Compounds 25220 and 25221, as well as 25923, were tested in the UUO model for their effects on fibrosis. Groups of 8 animals each were treated as follows: sham surgery, UUO with PBS, UUO with 25220, UUO with 25221, or UUO with 25923. Relative to the day of the UUO procedure, PBS or anti-miR-21 compound was administered at days −5, −3, and +3. Anti-miR-21 compounds were administered at a dose of 20 mg/kg. As the anti-miR compounds were administered prior to the UUO procedure, this dosing regimen is considered a prophylactic treatment. At day 10, animals were sacrificed and kidney was isolated for measurement of collagen expression. Collagen expression was measured by real-time PCR and normalized to GAPDH.

miR-21 = miR-21 luciferase sensor assay in Hela cells; type: cell-based; conditions: for luciferase value normalized to beta-galactosidase activity / inhibition of miR-21 activity in the luciferase assay (in words): Hela cells
Procedure: The compounds were assessed for miR-21 inhibitory activity in a luciferase assay. A microRNA luciferase sensor construct was engineered using pGL3-MCS2 (Promega). The construct was introduced into Hela cells to test the ability of anti-miR compounds to inhibit activity of miR-21. In this assay, miR-21 present in the Hela cells binds to its cognate site(s) in the luciferase sensor construct, and suppresses luciferase expression. When the appropriate anti-miR is introduced into the cells, it binds to miR-21 and relieves suppression of luciferase expression. Thus, in this assay anti-miRs that are effective inhibitors of miR-21 expression will cause an increase in luciferase expression.
Hela cells (ATCC), stably transfected with a luciferase construct engineered to contain a sequence complementary of miR-21, were seeded in T-170 flasks (BD Falcon) at 3.5*10^6 cells/flask. Hela cells were grown in Dulbecco's Modified Eagle Medium with High Glucose (Invitrogen).
Each flask of Hela cells was transfected with 0.5 ug of a phRL sensor plasmid (Promega) expressing Renilla to be used in normalization. Hela cells were transfected using 20 ul Lipofectamine 2000/flask (Invitrogen). After 4 hours of transfection, cells were washed with PBS and trypsinized Hela cells were plated at 40 k/well in 24 well plates (BD Falcon) and left overnight.
Hela cells were transfected with anti-miRs using Lipofectin (Invitrogen) at 2.5 ul Lipofectin/100 nM ASO/ml Opti-MEM I Reduced Serum Medium (Invitrogen) for 4 hours. After ASO transfection, Hela cells were refed with Dulbecco's Modified Eagle Medium with High Glucose (Invitrogen).
Hela cells are passively lysed and luciferase activity measured using the Dual-Luciferase Reporter Assay System (Promega).
The luciferase assay was performed to test the ability of anti-miRs with the nucleoside patterns described herein to inhibit the activity of miR-21. Results were compared to a ‘mock’ treatment, in which cells received no anti-miR treatment. The experiment was repeated and results of two experimental replicates are shown in the following Table B, as the luciferase value normalized to beta-galactosidase activity.
The luciferase assay was performed as described herein to test the ability of anti-miRs in Table F to inhibit the activity of miR-21. Results were compared to a ‘mock’ treatment, in which cells received no anti-miR treatment. The experiment was repeated and results of two experimental replicates are shown in the following Table D, as fold change in luciferase value relative to the mock treatment.

[2] = 500 nM oligonucleotide, two experimental replicates
[3] = concentration of anti-miR compound 0.2 (unit not given)
[4] = concentration of anti-miR compound 0.6 (unit not given)
[5] = concentration of anti-miR compound 1.9 (unit not given)
[6] = concentration of anti-miR compound 5.6 (unit not given)
[7] = concentration of anti-miR compound 16.7 (unit not given)
[8] = concentration of anti-miR compound 50.0 (unit not given)

| Substance | collagen 1A1 expression (FIG. 2A, in words) [1] | collagen 3A1 expression (FIG. 2B, in words) [1] | luciferase value normalized to beta-galactosidase activity (miR-21; 4 nM oligonucleotide) | luciferase value normalized to beta-galactosidase activity (miR-21; 20 nM oligonucleotide) | luciferase value normalized to beta-galactosidase activity (miR-21; 100 nM oligonucleotide) | luciferase value normalized to beta-galactosidase activity (miR-21; [2]) | luciferase value normalized to beta-galactosidase activity (miR-21; .16 nM oligonucleotide) | luciferase value normalized to beta-galactosidase activity (miR-21; .8 nM oligonucleotide) | inhibition of miR-21 activity in the luciferase assay (in words) (miR-21) | fold change in luciferase value relative to the mock treatment (miR-21; [3]) | fold change in luciferase value relative to the mock treatment (miR-21; [4]) | fold change in luciferase value relative to the mock treatment (miR-21; [5]) | fold change in luciferase value relative to the mock treatment (miR-21; [6]) | fold change in luciferase value relative to the mock treatment (miR-21; [7]) | fold change in luciferase value relative to the mock treatment (miR-21; [8]) |
| --- | --- | --- | --- | --- | --- | --- | --- | --- | --- | --- | --- | --- | --- | --- | --- |
| AECSATCSASGTCSUSGAUSASAGCSUsAE (ACATCAGTCTGATAAGCTA; sugar and backbone modifications, chemistry not fully specified) [Compound 25220] | reduced collagen 1A1 and collagen 3A1 expression by a stastically significant amount | reduced collagen 1A1 and collagen 3A1 expression by a stastically significant amount | – | – | – | – | – | – | – | – | – | – | – | – | – |
| Ae^MeCAST^MeCAGST^MeCTGASTASAGS^MeCTAe (ACATCAGTCTGATAAGCTA; listed as DNA, chemistry not fully specified) [Compound 25071] | – | – | 50 | 63 | 53 | 42 | 48 | 36 | – | – | – | – | – | – | – |
| AE^MeCSAT^MeCSAGT^MeCSTGATSAAG^MeCSTAS (antisense eA*k[5mC]*dA*dT*k[5mC]*dA*dG*dT*k[5mC]*dT*dG*dA*kT*dA*dA*dG*k[5mC]*dT*kA; further chemistry not given here) [Compound 25924, variation of 25070: 3′-terminal cEt nucleoside and each cytosine is a 5-methyl cytosine] | – | – | – | – | – | – | – | – | inhibition of miR-21 in a dose-dependent manner | 1.10 fold change | 1.25 fold change | 1.37 fold change | 7.80 fold change | 13.01 fold change | 8.99 fold change |
| AECSATCSAGTCSTGAUSAAGCSUsAS (ACATCAGTCTGATAAGCTA; sugar and backbone modifications, chemistry not fully specified) [Compound 25221] | reduced collagen 1A1 and collagen 3A1 expression by a stastically significant amount | reduced collagen 1A1 and collagen 3A1 expression by a stastically significant amount | – | – | – | – | – | – | – | – | – | – | – | – | – |
| AE^MeCSAETE^MeCSAEGETE^MeCSTEGEAE^MeTSAEAEGE^MeCSTEAE (antisense eA*k[5mC]*eA*eT*k[5mC]*eA*eG*eT*k[5mC]*eT*eG*eA*kT*eA*eA*eG*k[5mC]*eT*eA; further chemistry not given here) [Compound 25116, variation of 25070: each non-bicyclic nucleoside is 2′-MOE, each cytosine 5-methyl cytosine] | – | – | – | – | – | – | – | – | not effective inhibitors of miR-21 | 1.06 fold change | 0.98 fold change | 1.06 fold change | 2.47 fold change | 5.64 fold change | 1.98 fold change |
| AE^MeCSAT^MeCSAGT^MeCSTGATSAAG^MeCSTAE (antisense ACATCAGTCTGATAAGCTA; MOE ends, cEt, 5-methyl C, unmarked nucleosides not given here, further chemistry not given here) [Compound 25922, variation of 25070: each cytosine is a 5-methyl cytosine] | – | – | – | – | – | – | – | – | inhibition of miR-21 in a dose-dependent manner | 1.02 fold change | 1.10 fold change | 1.34 fold change | 8.81 fold change | 11.60 fold change | 11.46 fold change |
| AeTe^MeCeASGSTe^MeCeTeGSASTeAeASGS^MeCeTeAe [Compound 25077] | – | – | 45 | 33 | 42 | 40 | 34 | 33 | – | – | – | – | – | – | – |
| AeTe^MeCeAeGeTe^MeCeTeGSASTeASASGe^MeCeUSAS [Compound 25731] | – | – | 32 | 39 | 38 | 59 | 34 | 45 | – | – | – | – | – | – | – |
| AE^MeCLAETE^MeCLAEGETE^MeCLTEGEAE^MeTLAEAEGE^MeCLTEAE (antisense eA*l[5mC]*eA*eT*l[5mC]*eA*eG*eT*l[5mC]*eT*eG*eA*lT*eA*eA*eG*l[5mC]*eT*eA) [Compound 25117, variation of 25070: each non-bicyclic nucleoside is 2′-MOE, each cytosine 5-methyl cytosine] | – | – | – | – | – | – | – | – | not effective inhibitors of miR-21 | 1.05 fold change | 1.15 fold change | 1.14 fold change | 3.64 fold change | 7.36 fold change | 2.91 fold change |
| Te^MeCASA^MeCAST^MeCAGST^MeCTGASTAAGS^MeCTAe (TCAACATCAGTCTGATAAGCTA; cEt, 5-methyl C and phosphorothioate modifications, code letters not given here, further chemistry not given here) [Compound 25067] | – | – | 43 | 41 | 30 | 42 | 38 | 23 | – | – | – | – | – | – | – |
